Among the data in PubChem BioAssay AID1053139 (Broad Institute, 2014) are activity change, negative = cytotoxicity and AC50 values, retold here.

Active and inactive are the calls of the source.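 How the source made its calls: active means AC50 for cell killing below 10 µM, with the signal falling as expected; inactive means the rest, including compounds acting in the opposite direction.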

Test [1] can be described thus: viability loss in HepG2 hepatoma cells – cell-based, ATP luminescence, dry powder, set 16, cytotoxicity control, dose response (AID 1053139). As to conditions: HepG2 viability, ATP luminescence (CellTiter-Glo), 72 h.
Test [2] has as its system HepG2 viability, ATP luminescence (CellTiter-Glo), 72 h. The description is as above.

For `CO[C@H]1CN(C)C(=O)c2ccc(NC(=O)NC(C)C)cc2OC[C@H](C)N(Cc2ccc(-c3ccccn3)cc2)C[C@@H]1C`, the activity change, negative = cytotoxicity in test [1] (at 26 µM (top of the series)) was -5.04% (inactive).

Turning to `CCCNC(=O)Nc1ccc2c(c1)OC[C@H](C)N(Cc1ccccc1)C[C@H](C)[C@@H](OC)CN(C)C2=O`, in test [1] (at 26 µM (top of the series)), the activity change, negative = cytotoxicity is 11.9% (inactive).

For the compound `CO[C@H]1CN(C)C(=O)c2cc(NC(=O)NC(C)C)ccc2OC[C@H](C)N(Cc2cccc(F)c2)C[C@@H]1C`, the activity change, negative = cytotoxicity in test [1] (at 50 µM (top of the series)) is -1.88% (inactive).

Regarding `CO[C@H]1CN(C)C(=O)c2ccc(NC(=O)NC(C)C)cc2OC[C@H](C)N(Cc2ccccc2)C[C@@H]1C`, the activity change, negative = cytotoxicity in test [1] (at 26 µM (top of the series)) is 9.75% (inactive).

`CO[C@H]1CN(C)C(=O)c2cc(NC(=O)NC(C)C)ccc2OC[C@H](C)N(Cc2ccc(F)cc2)C[C@@H]1C`: the activity change, negative = cytotoxicity in test [1] (at 50 µM (top of the series)) was 0.295% (inactive).

As to `CO[C@H]1CN(C)C(=O)c2cc(N)ccc2OC[C@H](C)N(Cc2ccc(-c3ccccn3)cc2)C[C@@H]1C`, in test [1] (at 50 µM (top of the series)), the activity change, negative = cytotoxicity was 19.6% (inactive).

Take `CO[C@H]1CN(C)C(=O)c2cc(NC(=O)NC(C)C)ccc2OC[C@H](C)N(C(=O)c2ccc(-c3ccccn3)cc2)C[C@@H]1C`: in test [1] (at 50 µM (top of the series)), the activity change, negative = cytotoxicity is -10.3% (inactive).

As for `CCCC(=O)Nc1ccc2c(c1)OC[C@H](C)N(Cc1ccc(-c3ccccn3)cc1)C[C@H](C)[C@@H](OC)CN(C)C2=O`, the activity change, negative = cytotoxicity in test [1] (at 26 µM (top of the series)) is 10.3% (inactive).

Turning to `CO[C@H]1CN(C)C(=O)c2cc(NC(=O)NC(C)C)ccc2OC[C@H](C)N(Cc2ccc(-c3ccncc3)cc2)C[C@@H]1C`, the activity change, negative = cytotoxicity in test [1] (at 50 µM (top of the series)) was -12.8% (inactive).

Turning to `CO[C@H]1CN(C)C(=O)c2cc(Nc3c(NC4CC4)c(=O)c3=O)ccc2OC[C@H](C)N(Cc2ccc(-c3ccccn3)cc2)C[C@@H]1C`, in test [2], the AC50 (usually the midpoint of the concentration-response curve, whichever way the signal moves) is 38.4 µM.

For `CO[C@H]1CN(C)C(=O)c2cc(NC(=O)NC(C)C)ccc2OC[C@H](C)N(Cc2ccccn2)C[C@@H]1C`, the activity change, negative = cytotoxicity in test [1] (at 50 µM (top of the series)) was 1.78% (inactive).

Turning to `CO[C@H]1CN(C)C(=O)c2cc(NC(=O)NC(C)C)ccc2OC[C@H](C)N(C(=O)c2ccccc2)C[C@@H]1C`, in test [1] (at 50 µM (top of the series)), the activity change, negative = cytotoxicity was -5.8% (inactive).

On to `CO[C@H]1CN(C)C(=O)c2cc(NC(=O)NC(C)C)ccc2OC[C@H](C)N(Cc2cccnc2)C[C@@H]1C`, for which, in test [1] (at 50 µM (top of the series)), the activity change, negative = cytotoxicity is 6.28% (inactive).

For the compound `CO[C@H]1CN(C)C(=O)c2cc(Nc3c(NC(C)C)c(=O)c3=O)ccc2OC[C@H](C)N(Cc2ccc(-c3ccccn3)cc2)C[C@@H]1C`, the activity change, negative = cytotoxicity in test [1] (at 50 µM (top of the series)) is -15.4% (inactive).

`CCCC(=O)Nc1ccc2c(c1)OC[C@H](C)N(Cc1ccccc1)C[C@H](C)[C@@H](OC)CN(C)C2=O`: the activity change, negative = cytotoxicity in test [1] (at 26 µM (top of the series)) was 6.6% (inactive).

In the case of `CO[C@H]1CN(C)C(=O)c2cc(NC(=O)NC(C)C)ccc2OC[C@H](C)N(C(=O)Nc2ccc(-c3ccccn3)cc2)C[C@@H]1C`, the activity change, negative = cytotoxicity in test [1] (at 50 µM (top of the series)) was -15% (inactive).

For `CO[C@H]1CN(C)C(=O)c2cc(Nc3c(NC4CCCC4)c(=O)c3=O)ccc2OC[C@H](C)N(Cc2ccc(-c3ccccn3)cc2)C[C@@H]1C`, the activity change, negative = cytotoxicity in test [1] (at 50 µM (top of the series)) is 6.09% (inactive).

With `CCC(CC)Nc1c(Nc2ccc3c(c2)C(=O)N(C)C[C@H](OC)[C@@H](C)CN(Cc2ccc(-c4ccccn4)cc2)[C@@H](C)CO3)c(=O)c1=O`, the activity change, negative = cytotoxicity in test [1] (at 50 µM (top of the series)) was -1.61% (inactive).

As to `CO[C@H]1CN(C)C(=O)c2cc(NC(=O)NC(C)C)ccc2OC[C@H](C)N(Cc2cncnc2)C[C@@H]1C`, the AC50 in test [2] is > 100 µM (inactive).

In the case of `CO[C@H]1CN(C)C(=O)c2cc(NC(=O)NC(C)C)ccc2OC[C@H](C)N(Cc2ccc(-c3cncnc3)cc2)C[C@@H]1C`, the AC50 in test [2] is > 100 µM (inactive).

For the compound `CO[C@H]1CN(C)C(=O)c2cc(Nc3c(NC4CCCCC4)c(=O)c3=O)ccc2OC[C@H](C)N(Cc2ccc(-c3ccccn3)cc2)C[C@@H]1C`, in test [1] (at 50 µM (top of the series)), the activity change, negative = cytotoxicity is -22.3% (inactive).

`CO[C@H]1CN(C)C(=O)c2cc(NC(=O)NC(C)C)ccc2OC[C@H](C)NC[C@@H]1C`: the activity change, negative = cytotoxicity in test [1] (at 50 µM (top of the series)) was -2.2% (inactive).

On to `CCCNC(=O)Nc1ccc2c(c1)OC[C@H](C)N(Cc1ccc(-c3ccccn3)cc1)C[C@H](C)[C@@H](OC)CN(C)C2=O`, for which the activity change, negative = cytotoxicity in test [1] (at 26 µM (top of the series)) is -4.61% (inactive).

Take `CO[C@H]1CN(C)C(=O)c2cc(NC(=O)C(C)C)ccc2OC[C@H](C)N(Cc2ccc(-c3ccccn3)cc2)C[C@@H]1C`: the AC50 in test [2] was > 24 µM (inactive).

Consider `CO[C@H]1CN(C)C(=O)c2cc(NC(=O)OC(C)C)ccc2OC[C@H](C)N(Cc2ccc(-c3ccccn3)cc2)C[C@@H]1C`, for which, in test [1] (at 50 µM (top of the series)), the activity change, negative = cytotoxicity was 12.6% (inactive).

As for `CO[C@H]1CN(C)C(=O)c2cc(NC(=O)NC(C)C)ccc2OC[C@H](C)N(Cc2ccncc2)C[C@@H]1C`, in test [1] (at 50 µM (top of the series)), the activity change, negative = cytotoxicity is -4.57% (inactive).

Regarding `CO[C@H]1CN(C)C(=O)c2cc(NC(=O)NC(C)C)ccc2OC[C@H](C)N(Cc2ccccc2F)C[C@@H]1C`, the activity change, negative = cytotoxicity in test [1] (at 50 µM (top of the series)) is 12.7% (inactive).

Regarding `CO[C@H]1CN(C)C(=O)c2cc(NC(=O)NC(C)C)ccc2OC[C@H](C)N(Cc2ccc(-c3ccccn3)cc2)C[C@@H]1C`, in test [1] (at 50 µM (top of the series)), the activity change, negative = cytotoxicity is -5.64% (inactive).

As to `CO[C@H]1CN(C)C(=O)c2cc(NC(=O)NC(C)C)ccc2OC[C@H](C)N(Cc2ccc(-c3cccnc3)cc2)C[C@@H]1C`, in test [1] (at 50 µM (top of the series)), the activity change, negative = cytotoxicity was 40.3% (inactive).

For `CO[C@H]1CN(C)C(=O)c2cc(Nc3ncccn3)ccc2OC[C@H](C)N(Cc2ccc(-c3ccccn3)cc2)C[C@@H]1C`, the activity change, negative = cytotoxicity in test [1] (at 50 µM (top of the series)) was 15.4% (inactive).
